Values after ≈ are worked out from the molar mass of the structure shown.
Legend:
Assay type in all cases: cell-based
[1] = test system: vancomycin-susceptible enterococci, ATCC 29212; experiment: Minimum inhibitory concentration against VSE; conditions: vancomycin-susceptible enterococci, ATCC 29212
Text: (§1) The chemistry described above enabled direct synthesis of eleven previously unknown analogs of 3. The minimum inhibitory concentrations (MICs) for the new analogs as antibacterial agents as determined.

[2] = test system: vancomycin-resistant enterococci (VanA), MMX 486; experiment: Minimum inhibitory concentration against VRE (VanA); conditions: for MIC, VRE (VanA): MMX 486, vancomycin and teicoplanin resistant; for activity against VRE (VanA) strain, in words: compared with vancomycin and teicoplanin
Text: as §1

[3] = test system: methicillin-susceptible S. aureus, ATCC 29213; experiment: Minimum inhibitory concentration against MSSA; conditions: methicillin-susceptible S. aureus, ATCC 29213
Text: as §1

[4] = test system: methicillin-resistant S. aureus, ATCC 43300; experiment: Minimum inhibitory concentration against MRSA; conditions: for MIC, MRSA: methicillin-resistant S. aureus, ATCC 43300
Text: as §1

[5] = test system: vancomycin-resistant enterococci (VanB), ATCC 51299; experiment: Minimum inhibitory concentration against VRE (VanB); conditions: for MIC, VRE (VanB): vancomycin-resistant enterococci, ATCC 51299
Text: as §1

[6] = compared with vancomycin and teicoplanin

| MIC, VSE [1] [µg/mL] | MIC, VRE (VanA) [2] [µg/mL] | MIC, MSSA [3] [µg/mL] | MIC, MRSA [4] [µg/mL] | MIC, VRE (VanB) [5] [µg/mL] | Structure (SMILES) | activity against VRE (VanA) strain, in words [2] | potency against MRSA strain, in words [4, 6] | activity against VRE (VanB) strain, in words [5, 6] |
| --- | --- | --- | --- | --- | --- | --- | --- | --- |
| 4 (≈ 1.89 µM) | >64 | 2 (≈ 0.945 µM) | 2 (≈ 0.945 µM) | 8 (≈ 3.78 µM) | CC(=O)N[C@H]1[C@H](O[C@@H]2c3ccc(c(Cl)c3)Oc3cc4cc(c3O[C@@H]3O[C@H](CO)[C@@H](O)[C@H](O)[C@H]3NC(=O)CCCCCCC(C)C)Oc3ccc(cc3Cl)C[C@H]3NC(=O)[C@H](N)c5ccc(O)c(c5)Oc5cc(c(Br)c(O)c5Br)[C@H](NC3=O)C(=O)N[C@H]4C(=O)N[C@H]3C(=O)N[C@@H]2C(=O)N[C@H](C(=O)O)c2cc(O)c(Br)c(O[C@H]4O[C@H](CO)[C@@H](O)[C@H](O)[C@@H]4O)c2-c2cc3ccc2O)O[C@H](CO)[C@@H](O)[C@@H]1O [Compound 12] | – | – | – |
| 0.5 (≈ 0.256 µM) | 1 (≈ 0.511 µM) | 8 (≈ 4.09 µM) | 4 (≈ 2.05 µM) | 0.25 (≈ 0.128 µM) | CCCCCC/C=C/c1cc2ccc1Oc1cc3cc(c1O[C@@H]1O[C@H](CO)[C@@H](O)[C@H](O)[C@H]1NC(=O)CCCCCCC(C)C)Oc1ccc(cc1Cl)[C@@H](O[C@@H]1O[C@H](CO)[C@@H](O)[C@H](O)[C@H]1NC(C)=O)[C@@H]1NC(=O)[C@H](NC(=O)[C@@H]3NC(=O)[C@H]3NC(=O)[C@@H](C2)NC(=O)[C@H](N)c2ccc(O)c(c2)Oc2cc(O)cc3c2)c2ccc(O)c(c2)-c2c(O[C@H]3O[C@H](CO)[C@@H](O)[C@H](O)[C@@H]3O)cc(O)cc2[C@@H](C(=O)O)NC1=O [Compound 20] | quite high (significant) potency | – | – |
| 0.25 (≈ 0.126 µM) | >64 | 0.5 (≈ 0.251 µM) | 0.5 (≈ 0.251 µM) | 0.5 (≈ 0.251 µM) | CC(=O)N[C@H]1[C@H](O[C@@H]2c3ccc(c(Cl)c3)Oc3cc4cc(c3O[C@@H]3O[C@H](CO)[C@@H](O)[C@H](O)[C@H]3NC(=O)CCCCCCC(C)C)Oc3ccc(cc3-c3ccoc3)C[C@H]3NC(=O)[C@H](N)c5ccc(O)c(c5)Oc5cc(O)cc(c5)[C@H](NC3=O)C(=O)N[C@H]4C(=O)N[C@H]3C(=O)N[C@@H]2C(=O)N[C@H](C(=O)O)c2c(Br)c(O)cc(O[C@H]4O[C@H](CO)[C@@H](O)[C@H](O)[C@@H]4O)c2-c2cc3ccc2O)O[C@H](CO)[C@@H](O)[C@@H]1O [Compound 16] | – | – | – |
| 0.25 (≈ 0.128 µM) | >64 | 0.25 (≈ 0.128 µM) | 0.25 (≈ 0.128 µM) | 0.5 (≈ 0.257 µM) | CC(=O)N[C@H]1[C@H](O[C@@H]2c3ccc(c(Cl)c3)Oc3cc4cc(c3O[C@@H]3O[C@H](CO)[C@@H](O)[C@H](O)[C@H]3NC(=O)CCCCCCC(C)C)Oc3ccc(cc3Cl)C[C@H]3NC(=O)[C@H](N)c5ccc(O)c(c5)Oc5cc(O)c(-c6ccoc6)c(c5)[C@H](NC3=O)C(=O)N[C@H]4C(=O)N[C@H]3C(=O)N[C@@H]2C(=O)N[C@H](C(=O)O)c2cc(O)cc(O[C@H]4O[C@H](CO)[C@@H](O)[C@H](O)[C@@H]4O)c2-c2cc3ccc2O)O[C@H](CO)[C@@H](O)[C@@H]1O [Compound 14] | – | higher potency | – |
| 0.12 (≈ 0.0628 µM) | 32 (≈ 16.7 µM) | 0.25 (≈ 0.131 µM) | 0.25 (≈ 0.131 µM) | 0.12 (≈ 0.0628 µM) | CC(=O)N[C@H]1[C@H](O[C@@H]2c3ccc(c(Cl)c3)Oc3cc4cc(c3O[C@@H]3O[C@H](CO)[C@@H](O)[C@H](O)[C@H]3NC(=O)CCCCCCC(C)C)Oc3ccc(cc3-c3ccoc3)C[C@H]3NC(=O)[C@H](N)c5ccc(O)c(c5)Oc5cc(O)cc(c5)[C@H](NC3=O)C(=O)N[C@H]4C(=O)N[C@H]3C(=O)N[C@@H]2C(=O)N[C@H](C(=O)O)c2cc(O)cc(O[C@H]4O[C@H](CO)[C@@H](O)[C@H](O)[C@@H]4O)c2-c2cc3ccc2O)O[C@H](CO)[C@@H](O)[C@@H]1O [Compound 18] | enhancement of activity | – | enhancement of activity |
| 0.12 (≈ 0.0607 µM) | >32 | 0.25 (≈ 0.126 µM) | 0.25 (≈ 0.126 µM) | 0.25 (≈ 0.126 µM) | CC(=O)N[C@H]1[C@H](O[C@@H]2c3ccc(c(Cl)c3)Oc3cc4cc(c3O[C@@H]3O[C@H](CO)[C@@H](O)[C@H](O)[C@H]3NC(=O)CCCCCCC(C)C)Oc3ccc(cc3-c3ccoc3)C[C@H]3NC(=O)[C@H](N)c5ccc(O)c(c5)Oc5cc(O)c(-c6ccoc6)c(c5)[C@H](NC3=O)C(=O)N[C@H]4C(=O)N[C@H]3C(=O)N[C@@H]2C(=O)N[C@H](C(=O)O)c2cc(O)cc(O[C@H]4O[C@H](CO)[C@@H](O)[C@H](O)[C@@H]4O)c2-c2cc3ccc2O)O[C@H](CO)[C@@H](O)[C@@H]1O [Compound 15] | – | – | – |

Source: patent US10294275B2, “Site-selective functionalization of glycopeptide antibiotics” (Yale University, priority 2012, dated 2019)
